Test results from patent US20230233541A1, “SUBSTITUTED BENZAMIDES AS MODULATORS OF TREX1” (Constellation Pharmaceuticals, Inc., priority 2020, published 2023).

Experiments:
[1] = target: T1, full length human TREX1 (Homo sapiens, UniProt Q9NSU2); experiment: TREX1 Biochemical Assay (fluorescence assay, degradation of dsDNA substrate); details: 150 pM TREX1, 60 nM dsDNA substrate, 25 minutes at room temperature; read-out: hTREX1 EC50
T1 construct: N-terminally His-Tev tagged full length human TREX1; His-Tev (His tag with TEV protease site) (N); made in house; host or cells: E. coli
T1 sequence (Q9NSU2 1-314): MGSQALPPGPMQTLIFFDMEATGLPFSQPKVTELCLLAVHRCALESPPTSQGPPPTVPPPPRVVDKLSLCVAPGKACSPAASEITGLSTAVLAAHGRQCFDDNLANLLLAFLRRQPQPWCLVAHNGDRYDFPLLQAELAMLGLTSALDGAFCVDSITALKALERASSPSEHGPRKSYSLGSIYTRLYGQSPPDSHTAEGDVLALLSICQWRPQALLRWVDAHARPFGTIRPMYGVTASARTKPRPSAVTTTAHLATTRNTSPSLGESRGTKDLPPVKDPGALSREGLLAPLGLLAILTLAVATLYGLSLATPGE
Protocol: Degradation of the dsDNA liberates free fluorophore to produce a fluorescent signal. Specifically, 7.5 μL of N-terminally His-Tev tagged full length human TREX1 (expressed in E. coli and purified in house) in reaction buffer (50 mM Tris (pH 7.4), 150 mM NaCl, 2 mM DTT, 0.1 mg/mL BSA, 0.01% (v/v) Tween-20 and 100 mM MgCl2) was added to a 384-well Black ProxiPlate Plus (Perkin Elmer) which already contained compound (150 nL) at varying concentrations as a 10-point dose-response in DMSO. To this was added 7.5 μL of dsDNA substrate (Strand A: 5′ TEX615/GCT AGG CAG 3′; Strand B: 5′ CTG CCT AGC/IAbRQSp (Integrated DNA Technologies)) in reaction buffer. Final concentrations were 150 pM TREX1, 60 nM dsDNA substrate in reaction buffer with 1.0% DMSO (v/v). After 25 minutes at room temperature, reactions were quenched by the addition of 5 μL of stop buffer (same as reaction buffer plus 200 mM EDTA). Final concentrations in the quenched reaction were 112.5 pM TREX1, 45 nM DNA and 50 mM EDTA in a volume of 20 μL. After a 5-minute incubation at room temperature, plates were read in a laser sourced Envision (Perkin-Elmer), measuring fluorescence at 615 nm following excitation w/570 nm light. IC50 values were calculated by comparing the measured fluorescence at 615 nm ratio relative to control wells pre-quenched w/stop buffer (100% inhibition) and no inhibitor (0% inhibition) controls as using non-linear least square four parameter fits and either Genedata or GraphPad Prism (GraphPad Software, Inc.).

[2] = target: T2, human TREX2 (residues M44-A279) (Homo sapiens, UniProt Q9BQ50); experiment: TREX2 Biochemical Assay (fluorescence assay, degradation of dsDNA substrate); details: 2.5 nM TREX2, 60 nM dsDNA substrate, 25 minutes at room temperature; read-out: hTREX2 EC50
T2 construct: human TREX2 (residues M44-A279, expressed in E. coli); His-Tev (His tag with TEV protease site) (N); made in house; host or cells: E. coli
T2 sequence (Q9BQ50 44-279 isoform Q9BQ50-1): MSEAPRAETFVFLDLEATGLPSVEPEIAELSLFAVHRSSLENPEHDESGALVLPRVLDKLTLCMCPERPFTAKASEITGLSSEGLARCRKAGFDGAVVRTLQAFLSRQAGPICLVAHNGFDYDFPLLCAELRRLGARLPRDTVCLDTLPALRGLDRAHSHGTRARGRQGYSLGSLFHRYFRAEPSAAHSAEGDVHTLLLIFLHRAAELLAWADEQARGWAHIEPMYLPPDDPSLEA
Protocol: Degradation of the dsDNA liberates free fluorophore to produce a fluorescent signal. Specifically, 7.5 μL of N-terminally His-Tev tagged human TREX2 (residues M44-A279, expressed in E. coli and purified in house) in reaction buffer (50 mM Tris (pH 7.4), 150 mM NaCl, 2 mM DTT, 0.1 mg/mL BSA, 0.01% (v/v) Tween-20 and 100 mM MgCl2) was added to a 384-well Black ProxiPlate Plus (Perkin Elmer) which already contained compound (150 nL) at varying concentrations as a 10-point dose-response in DMSO. To this was added 7.5 μL of dsDNA substrate (Strand A: 5′ TEX615/GCT AGG CAG 3′; Strand B: 5′ CTG CCT AGC/IAbRQSp (IDT)) in reaction buffer. Final concentrations were 2.5 nM TREX2, 60 nM dsDNA substrate in reaction buffer with 1.0% DMSO (v/v). After 25 minutes at room temperature, reactions were quenched by the addition of 5 μL of stop buffer (same as reaction buffer plus 200 mM EDTA). Final concentrations in the quenched reaction mixture were […] TREX2, 45 nM DNA and 50 mM EDTA in a volume of 20 μL. After a 5-minute incubation at room temperature, plates were read in a laser sourced Envision (Perkin-Elmer), measuring fluorescence at 615 nm following excitation w/570 nm light. IC50 values were calculated by comparing the measured fluorescence at 615 nm ratio relative to control wells pre-quenched w/stop buffer (100% inhibition) and no inhibitor (0% inhibition) controls as using non-linear least square four parameter fits and either Genedata or GraphPad Prism (GraphPad Software, Inc.).

| SMILES | EC50 [1] [µM] | EC50 [2] [µM] |
| --- | --- | --- |
| C[C@H](c1cccnc1)N(Cc1ccc(Cl)cc1Cl)C(=O)c1cccc(F)c1 (single isomer, unassigned) [Compound 153] | > 10 | > 100 |
| CC[C@H](c1ccc(Cl)cc1Cl)N(Cc1cccnc1)C(=O)c1cccc(F)c1 (single isomer, unassigned) [Compound 157] | 0.1 to 1 | 10 to 100 |
| CC(C)[C@H](c1ccc(Cl)cc1Cl)N(Cc1cccnc1)C(=O)c1cccc(F)c1 (single isomer, unassigned) [Compound 159] | 1 to 10 | 10 to 100 |
| O=C(c1cccc(F)c1)N(Cc1cccnc1)[C@@H](CO)c1ccc(Cl)cc1Cl (single isomer, unassigned) [Compound 161] | > 10 | 10 to 100 |
| O=C(c1cccc(F)c1)N(Cc1cccnc1)[C@H](CO)c1ccc(Cl)cc1Cl (single isomer, unassigned) [Compound 162] | 0.1 to 1 | 10 to 100 |
| O=C(c1ccc(O)c(Cl)c1)N(Cc1cccnc1)Cc1ccc(Cl)cc1Cl [Compound 3] | > 10 | – |
| O=C(c1cccc(Cl)c1)N(Cc1cccnc1)Cc1ccc(Cl)cc1Cl [Compound 5] | 1 to 10 | > 100 |
| O=C(c1ccc(Br)cc1)N(Cc1cccnc1)Cc1ccc(Cl)cc1Cl [Compound 6] | 1 to 10 | > 100 |
| O=C(c1ccc(Cl)cc1)N(Cc1cccnc1)Cc1ccc(Cl)cc1Cl [Compound 8] | > 10 | – |
| Cc1ccc(C(=O)N(Cc2cccnc2)Cc2ccc(Cl)cc2Cl)c(Br)c1 [Compound 9] | > 10 | – |
| O=C(c1cccc(F)c1)N(Cc1cccnc1)Cc1ccc(Cl)cc1Cl [Compound 11] | 1 to 10 | 10 to 100 |
| COc1cccc(C(=O)N(Cc2cccnc2)Cc2ccc(Cl)cc2Cl)c1 [Compound 13] | 1 to 10 | – |
| O=C(c1ccc(O)c(Br)c1)N(Cc1cccnc1)Cc1ccc(Cl)cc1Cl [Compound 15] | > 10 | – |
| O=C(c1ccc(Cl)cc1O)N(Cc1cccnc1)Cc1ccc(Cl)cc1Cl [Compound 17] | > 10 | – |
| O=C(c1ccc(Br)cc1Cl)N(Cc1cccnc1)Cc1ccc(Cl)cc1Cl [Compound 18] | > 10 | – |
| COc1cc(C(=O)N(Cc2cccnc2)Cc2ccc(Cl)cc2Cl)cc(Cl)c1O [Compound 22] | > 10 | > 100 |
| O=C(c1ccc(-c2ccccc2)cc1)N(Cc1cccnc1)Cc1ccc(Cl)cc1Cl [Compound 24] | > 10 | > 100 |
| O=C(c1ccc(Br)cc1)N(Cc1cccnc1)Cc1cc(Cl)cc(Cl)c1 [Compound 26] | > 10 | > 100 |
| O=C(c1cc(Cl)c(O)c(Cl)c1)N(Cc1cccnc1)Cc1ccc(Cl)cc1Cl [Compound 27] | > 10 | > 100 |
| O=C(c1ccc(O)c(Cl)c1)N(Cc1cccnc1)Cc1cc(Cl)cc(Cl)c1 [Compound 35] | > 10 | > 100 |

Continued, values first:

| EC50 [1] [µM] | EC50 [2] [µM] | SMILES |
| --- | --- | --- |
| > 10 | > 100 | C[C@@H](c1cccnc1)N(Cc1ccc(Cl)cc1Cl)C(=O)c1cccc(F)c1 (single isomer, unassigned) [Compound 154] |
| 1 to 10 | 10 to 100 | CC[C@@H](c1ccc(Cl)cc1Cl)N(Cc1cccnc1)C(=O)c1cccc(F)c1 (single isomer, unassigned) [Compound 158] |
| 1 to 10 | 10 to 100 | CC(C)[C@@H](c1ccc(Cl)cc1Cl)N(Cc1cccnc1)C(=O)c1cccc(F)c1 (single isomer, unassigned) [Compound 160] |
| 0.1 to 1 | 10 to 100 | C[C@H](c1ccc(C(N)=O)cc1Cl)N(Cc1cccnc1)C(=O)c1cccc(F)c1 (single isomer, unassigned) [Compound 163] |
| > 10 | 10 to 100 | C[C@@H](c1ccc(C(N)=O)cc1Cl)N(Cc1cccnc1)C(=O)c1cccc(F)c1 (single isomer, unassigned) [Compound 164] |
| > 10 | > 100 | O=C(c1ccccc1)N(Cc1cccnc1)Cc1cc(Cl)cc(Cl)c1 [Compound 1, N-[(3,5-dichlorophenyl)methyl]-N-[(pyridin-3-yl)methyl]benzamide] |
| 1 to 10 | > 100 | O=C(c1ccccc1)N(Cc1cccnc1)Cc1ccc(Cl)cc1Cl [Compound 2] |
| > 10 | – | O=C(c1ccccc1F)N(Cc1cccnc1)Cc1ccc(Cl)cc1Cl [Compound 4] |
| > 10 | – | O=C(c1ccc(Cl)c(Cl)c1)N(Cc1cccnc1)Cc1ccc(Cl)cc1Cl [Compound 7] |
| 1 to 10 | > 100 | O=C(c1ccc(F)c(Br)c1)N(Cc1cccnc1)Cc1ccc(Cl)cc1Cl [Compound 12] |
| > 10 | – | O=C(c1ccc(Cl)cc1Br)N(Cc1cccnc1)Cc1ccc(Cl)cc1Cl [Compound 14] |
| > 10 | – | Cc1cc(C(=O)N(Cc2cccnc2)Cc2ccc(Cl)cc2Cl)ccc1Br [Compound 16] |
| 1 to 10 | > 100 | O=C(c1ccc(F)c(Cl)c1)N(Cc1cccnc1)Cc1ccc(Cl)cc1Cl [Compound 19] |
| > 10 | – | O=C(c1cc(Cl)ccc1O)N(Cc1cccnc1)Cc1ccc(Cl)cc1Cl [Compound 20] |
| > 10 | – | O=C(c1ccc(O)c(F)c1)N(Cc1cccnc1)Cc1ccc(Cl)cc1Cl [Compound 21] |
| > 10 | > 100 | O=C(c1cccc(F)c1)N(Cc1cccnc1)Cc1cc(Cl)cc(Cl)c1 [Compound 23] |
| 1 to 10 | > 100 | O=C(c1ccc(Oc2ccc(Cl)cc2)cc1)N(Cc1cccnc1)Cc1ccc(Cl)cc1Cl [Compound 25] |
| > 10 | > 100 | O=C(c1ccc2ccccc2c1)N(Cc1cccnc1)Cc1ccc(Cl)cc1Cl [Compound 28] |
| > 10 | > 100 | O=C(c1ccc(Cl)cc1)N(Cc1cccnc1)Cc1cc(Cl)cc(Cl)c1 [Compound 29] |
| > 10 | > 100 | O=C(c1cccc(Br)c1)N(Cc1cccnc1)Cc1cc(Cl)cc(Cl)c1 [Compound 30] |
| > 10 | > 100 | O=C(c1cccc(Oc2ccccc2)c1)N(Cc1cccnc1)Cc1ccc(Cl)cc1Cl [Compound 31] |
| > 10 | > 100 | COc1cc(C(=O)N(Cc2cccnc2)Cc2ccc(Cl)cc2Cl)cc(Br)c1OC [Compound 32] |
| > 10 | > 100 | O=C(c1ccc(Oc2ccccc2)cc1)N(Cc1cccnc1)Cc1ccc(Cl)cc1Cl [Compound 33] |
| > 10 | > 100 | O=C(c1cccc(Cl)c1)N(Cc1cccnc1)Cc1cc(Cl)cc(Cl)c1 [Compound 34] |
| > 10 | > 100 | COc1cccc(C(=O)N(Cc2cccnc2)Cc2cc(Cl)cc(Cl)c2)c1 [Compound 36] |
